In patent US20040133938A1, “Use of lipoic acid in plant culture media” (priority 2002, published 2004):

System: MicroTom cotyledon explants
Experiment: Transient GUS expression in MicroTom cotyledon explants
Assay type: cell-based, Lycopersicon esculentum
Conditions: for % High transient expression / % Low transient expression / % No transient expression: GUS, after 5 days on selection media
Protocol: Cotyledon explants were isolated from seedlings 7 days after sowing seeds on Davis Germination medium. Cotyledon explants were prepared by bathing them in 6 mL of TXD liquid medium (4.3 g/L MS salts, 2 mL/L Gamborg's B-5 500× salts, 4 mg/L pCPA (p-chlorophenoxyactic acid), 0.005 mg/L kinetin, and 30 g/L sucrose) to prevent desiccation and trimming them at both ends using a #15 feather blade. Immediately after the trimming, the cotyledon explants were gently placed on “feeder plates” containing UC2PC medium (2.2 g/L MS salts, 2.2 mL/L, Gamborg's B-5 500× salts, 0.2 mg/L 2,4-D, 4 mg/L pCPA, 0.1 mg/L kinetin, 30 g/L sucrose, 0.2 g/L potassium phosphate, 10 g/L agar, 8 mL/L acetosyringone (4.91 mg/mL), and 4 mL galacturonic acid (53.05 mg/mL)). The “feeder plates” are made by overlaying 2 mL of tobacco suspension cells and a sterile Whatman filter on the plates containing UC2PC medium. The cotyledon explants were gently poked with a sharp forceps (ASIM5311, Stainless French, made in Switzerland). Usually six to ten pokes were made per explant depending the size of cotyledons. Right after poking, the cotyledons were inoculated with Agrobacterium containing pMON15715 (FIG. 1) by adding 3 mL of the adjusted Agrobacterium solution on top of the cotyledons. The plates were incubated for 10 min at room temperature, and the Agrobacterium solution was aspirated with a sterile pipette. The cotyledons were then co-cultured for 2 days at 23-24° C. under a 16-h photoperiod. The co-culture plates were placed in plastic bags to keep the humidity, which is preferable for MicroTom growth.
Two days after co-cultivation, cotyledons were transferred to shoot induction medium SI-2 (4.3 g/L MS salts, 2 mL/L, Gamborg's B-5 500× salts, 30 g/L sucrose, 10 g/L agar, 500 mg/L carbenicillin, 100 mg/L cefotaxime, 0.1 mg/L IAA, and 2 mg/L zeatin riboside) supplemented with 10 μM of lipoic acid and 100 mg/L kanamycin. Three to four weeks after the induction stage, the cotyledons formed buds or shoots. Cotyledons with buds or shoots were separated by individual event and transferred to, shoot elongation medium E2 (SI-2 medium without IAA), supplemented with 100 mg/L kanamycin for two to four weeks. All culture plates were placed in a culture box, placed inside a plastic bag, and cultured at 23-24° C. under a 16 h photoperiod.
At the same time the tissue browning severity was measured, transient expression of the gus gene was scored. High transient expression was defined as an explant having more than 30% of the pokes that produced GUS blue spots. Low transient expression was defined as an explant having less than 30% of the pokes that produced GUS blue spots about 5 days after culturing on selection medium. Nontransient expression was determined as an explant having no GUS blue spot. With the lipoic acid treatments at the concentrations of 10 and 50 μM, the percentage of explants having high transient expression doubled from 30% (non-lipoic acid treatment) up to 60.9% (Table 2). […] When lipoic acid was used in the selection process at the concentrations of 10, 50 and 100 μM, 100% of explants transiently expressed the GUS gene, but without lipoic acid or lipoic acid at the concentration of 5 μM, 20% and 9.5% of explants had no GUS transient expression.

## O=C(O)CCCCC1CCSS1 (centres unmarked) [lipoic acid, 1,2-dithiolane-3-pentanoic acid]
5 μM lipoic acid
  % High transient expression: 42.9%
  % Low transient expression: 47.6%
  % No transient expression: 9.5%
10 μM lipoic acid
  % High transient expression: 60.9%
  % Low transient expression: 39.1%
  % No transient expression: 0%
50 μM lipoic acid
  % High transient expression: 56.5%
  % Low transient expression: 43.5%
  % No transient expression: 0%
100 μM lipoic acid
  % High transient expression: 34.8%
  % Low transient expression: 65.2%
  % No transient expression: 0%
Lipoic acid at 10, 50 and 100 μM in the selection process
  % of explants that transiently expressed the GUS gene: 100%
summary, MicroTom transformation
  increase of the percentage of explants having high level of transient expression: 2 fold
